{"source": "PubChem BioAssay AID1259407", "about": "(Chemical Carcinogenesis Research Information System (CCRIS), 2018)", "test_system": "CCRIS mutagenicity, Ames/micronucleus/aberration tests", "test": "CCRIS mutagenicity studies", "key": {"[1]": {"details": "Test System: AMES SALMONELLA TYPHIMURIUM, Strain/Indicator: TA98, Metabolic Activation: NONE, Method: STANDARD PLATE"}, "[2]": {"details": "Test System: AMES SALMONELLA TYPHIMURIUM, Strain/Indicator: TA98, Metabolic Activation: RAT, LIVER, S-9, AROCLOR 1254, Method: STANDARD PLATE"}, "[3]": {"details": "Test System: AMES SALMONELLA TYPHIMURIUM, Strain/Indicator: TA100, Metabolic Activation: NONE, Method: STANDARD PLATE"}, "[4]": {"details": "Test System: AMES SALMONELLA TYPHIMURIUM, Strain/Indicator: TA100, Metabolic Activation: RAT, LIVER, S-9, AROCLOR 1254, Method: STANDARD PLATE"}, "[5]": {"details": "Test System: AMES SALMONELLA TYPHIMURIUM, Strain/Indicator: TA1535, Metabolic Activation: NONE, Method: STANDARD PLATE"}, "[6]": {"details": "Test System: AMES SALMONELLA TYPHIMURIUM, Strain/Indicator: TA1535, Metabolic Activation: RAT, LIVER, S-9, AROCLOR 1254, Method: STANDARD PLATE"}, "[7]": {"details": "Test System: AMES SALMONELLA TYPHIMURIUM, Strain/Indicator: TA1537, Metabolic Activation: NONE, Method: STANDARD PLATE"}, "[8]": {"details": "Test System: AMES SALMONELLA TYPHIMURIUM, Strain/Indicator: TA1537, Metabolic Activation: RAT, LIVER, S-9, AROCLOR 1254, Method: STANDARD PLATE"}, "[9]": {"details": "Test System: AMES SALMONELLA TYPHIMURIUM, Strain/Indicator: TA1538, Metabolic Activation: NONE, Method: STANDARD PLATE"}, "[10]": {"details": "Test System: AMES SALMONELLA TYPHIMURIUM, Strain/Indicator: TA1538, Metabolic Activation: RAT, LIVER, S-9, AROCLOR 1254, Method: STANDARD PLATE"}}, "note": "Calls of active or inactive are those of the source. No rule for the calls is given here.", "data": [{"smiles": "CCCCC/C=C\\C/C=C\\CCCCCCCC(=O)O", "values": [{"measurement": "mutagenic call", "setting": "Test System: AMES SALMONELLA TYPHIMURIUM, Strain/Indicator: TA98, Metabolic Activation: HAMSTER, LIVER, S-9, AROCLOR 1254 (10%), Method: PREINCUBATION", "value": "inactive; negative"}, {"measurement": "mutagenic call", "setting": "Test System: AMES SALMONELLA TYPHIMURIUM, Strain/Indicator: TA98, Metabolic Activation: HAMSTER, LIVER, S-9, AROCLOR 1254, Method: STANDARD PLATE", "value": "inactive; negative"}, {"measurement": "mutagenic call", "setting": "Test System: AMES SALMONELLA TYPHIMURIUM, Strain/Indicator: TA98, Metabolic Activation: NONE, Method: PREINCUBATION", "value": "inactive; negative"}, {"measurement": "mutagenic call", "setting": "[1]", "value": "inactive; negative"}, {"measurement": "mutagenic call", "setting": "Test System: AMES SALMONELLA TYPHIMURIUM, Strain/Indicator: TA98, Metabolic Activation: RAT, LIVER, S-9, AROCLOR 1254 (10%), Method: PREINCUBATION", "value": "inactive; negative"}, {"measurement": "mutagenic call", "setting": "[2]", "value": "inactive; negative"}, {"measurement": "mutagenic call", "setting": "Test System: AMES SALMONELLA TYPHIMURIUM, Strain/Indicator: TA100, Metabolic Activation: HAMSTER, LIVER, S-9, AROCLOR 1254 (10%), Method: PREINCUBATION", "value": "inactive; negative"}, {"measurement": "mutagenic call", "setting": "Test System: AMES SALMONELLA TYPHIMURIUM, Strain/Indicator: TA100, Metabolic Activation: HAMSTER, LIVER, S-9, AROCLOR 1254, Method: STANDARD PLATE", "value": "inactive; negative"}, {"measurement": "mutagenic call", "setting": "Test System: AMES SALMONELLA TYPHIMURIUM, Strain/Indicator: TA100, Metabolic Activation: NONE, Method: PREINCUBATION", "value": "inactive; negative"}, {"measurement": "mutagenic call", "setting": "[3]", "value": "inactive; negative"}, {"measurement": "mutagenic call", "setting": "Test System: AMES SALMONELLA TYPHIMURIUM, Strain/Indicator: TA100, Metabolic Activation: RAT, LIVER, S-9, AROCLOR 1254 (10%), Method: PREINCUBATION", "value": "inactive; negative"}, {"measurement": "mutagenic call", "setting": "[4]", "value": "inactive; negative"}, {"measurement": "mutagenic call", "setting": "Test System: AMES SALMONELLA TYPHIMURIUM, Strain/Indicator: TA1535, Metabolic Activation: HAMSTER, LIVER, S-9, AROCLOR 1254 (10%), Method: PREINCUBATION", "value": "inactive; negative"}, {"measurement": "mutagenic call", "setting": "Test System: AMES SALMONELLA TYPHIMURIUM, Strain/Indicator: TA1535, Metabolic Activation: HAMSTER, LIVER, S-9, AROCLOR 1254, Method: STANDARD PLATE", "value": "inactive; negative"}, {"measurement": "mutagenic call", "setting": "Test System: AMES SALMONELLA TYPHIMURIUM, Strain/Indicator: TA1535, Metabolic Activation: NONE, Method: PREINCUBATION", "value": "inactive; negative"}, {"measurement": "mutagenic call", "setting": "[5]", "value": "inactive; negative"}, {"measurement": "mutagenic call", "setting": "Test System: AMES SALMONELLA TYPHIMURIUM, Strain/Indicator: TA1535, Metabolic Activation: RAT, LIVER, S-9, AROCLOR 1254 (10%), Method: PREINCUBATION", "value": "inactive; negative"}, {"measurement": "mutagenic call", "setting": "[6]", "value": "inactive; negative"}, {"measurement": "mutagenic call", "setting": "Test System: AMES SALMONELLA TYPHIMURIUM, Strain/Indicator: TA1537, Metabolic Activation: HAMSTER, LIVER, S-9, AROCLOR 1254 (10%), Method: PREINCUBATION", "value": "inactive; negative"}, {"measurement": "mutagenic call", "setting": "Test System: AMES SALMONELLA TYPHIMURIUM, Strain/Indicator: TA1537, Metabolic Activation: HAMSTER, LIVER, S-9, AROCLOR 1254, Method: STANDARD PLATE", "value": "inactive; negative"}, {"measurement": "mutagenic call", "setting": "Test System: AMES SALMONELLA TYPHIMURIUM, Strain/Indicator: TA1537, Metabolic Activation: NONE, Method: PREINCUBATION", "value": "inactive; negative"}, {"measurement": "mutagenic call", "setting": "[7]", "value": "inactive; negative"}, {"measurement": "mutagenic call", "setting": "Test System: AMES SALMONELLA TYPHIMURIUM, Strain/Indicator: TA1537, Metabolic Activation: RAT, LIVER, S-9, AROCLOR 1254 (10%), Method: PREINCUBATION", "value": "inactive; negative"}, {"measurement": "mutagenic call", "setting": "[8]", "value": "inactive; negative"}, {"measurement": "mutagenic call", "setting": "Test System: AMES SALMONELLA TYPHIMURIUM, Strain/Indicator: TA1538, Metabolic Activation: HAMSTER, LIVER, S-9, AROCLOR 1254, Method: STANDARD PLATE", "value": "inactive; negative"}, {"measurement": "mutagenic call", "setting": "[9]", "value": "inactive; negative"}, {"measurement": "mutagenic call", "setting": "[10]", "value": "inactive; negative"}, {"measurement": "mutagenic call", "setting": "Test System: MOUSE LYMPHOMA, Strain/Indicator: L5178Y (TK+/TK-), Metabolic Activation: NONE, Method: SUSPENSION/PLATE", "value": "inactive; negative. reevaluation of results: negative"}, {"measurement": "mutagenic call", "setting": "Test System: MOUSE LYMPHOMA, Strain/Indicator: L5178Y (TK+/TK-), Metabolic Activation: RAT, LIVER, S-9, AROCLOR 1254, Method: SUSPENSION/PLATE", "value": "inactive; negative. reevaluation of results: negative"}]}, {"smiles": "O=C1OCC(CBr)=C1Cl", "values": [{"measurement": "mutagenic call", "setting": "[3]", "value": "active; positive"}]}, {"smiles": "Nc1cccc([N+](=O)[O-])c1O", "values": [{"measurement": "mutagenic call", "setting": "[1]", "value": "inactive; negative"}, {"measurement": "mutagenic call", "setting": "[2]", "value": "inactive; negative"}, {"measurement": "mutagenic call", "setting": "[3]", "value": "inactive; negative"}, {"measurement": "mutagenic call", "setting": "[4]", "value": "inactive; negative"}, {"measurement": "mutagenic call", "setting": "[5]", "value": "inactive; negative"}, {"measurement": "mutagenic call", "setting": "[6]", "value": "inactive; negative"}, {"measurement": "mutagenic call", "setting": "[7]", "value": "inactive; negative"}, {"measurement": "mutagenic call", "setting": "[8]", "value": "inactive; negative"}, {"measurement": "mutagenic call", "setting": "[9]", "value": "inactive; negative"}, {"measurement": "mutagenic call", "setting": "[10]", "value": "inactive; negative"}]}, {"smiles": "C[C@]12CC[C@@H]3c4ccc(O)cc4CC[C@H]3[C@@H]1CCC2=O", "values": [{"measurement": "mutagenic call", "setting": "End Point: IN VITRO CHROMOSOMAL ABERRATIONS, Test System: CHO CELLS, Metabolic Activation: NONE", "value": "active; positive"}, {"measurement": "mutagenic call", "setting": "End Point: IN VITRO MICRONUCLEUS, Test System: MCF-7 (HUMAN MAMMARY CARCINOMA), Metabolic Activation: NONE", "value": "active; positive"}, {"measurement": "mutagenic call", "setting": "Test System: UDS RAT HEPATOCYTES, Strain/Indicator: THY INCORP (18-20 HR), Metabolic Activation: NONE, Method: LIQUID SCINTILLATION COUNTING", "value": "inactive; negative"}]}, {"smiles": "CCOc1ccc(NO)cc1", "values": [{"measurement": "mutagenic call", "setting": "Test System: AMES SALMONELLA TYPHIMURIUM, Strain/Indicator: TA100(NR), Metabolic Activation: NONE, Method: PREINCUBATION", "value": "inactive; negative"}, {"measurement": "mutagenic call", "setting": "Test System: AMES SALMONELLA TYPHIMURIUM, Strain/Indicator: TA100(NR), Metabolic Activation: NONE, Method: STANDARD PLATE", "value": "inactive; negative"}, {"measurement": "mutagenic call", "setting": "Test System: AMES SALMONELLA TYPHIMURIUM, Strain/Indicator: TA100, Metabolic Activation: HAMSTER, LIVER, S-9, KANECHLOR 400, Method: PREINCUBATION", "value": "active; positive"}, {"measurement": "mutagenic call", "setting": "[3]", "value": "inactive; negative"}, {"measurement": "mutagenic call", "setting": "Test System: AMES SALMONELLA TYPHIMURIUM, Strain/Indicator: TA100TN5-1,8-DNP1011, Metabolic Activation: NONE, Method: PREINCUBATION", "value": "inactive; negative"}, {"measurement": "mutagenic call", "setting": "Test System: AMES SALMONELLA TYPHIMURIUM, Strain/Indicator: TA100TN5-1,8-DNP1011, Metabolic Activation: NONE, Method: STANDARD PLATE", "value": "inactive; negative"}, {"measurement": "mutagenic call", "setting": "Test System: AMES SALMONELLA TYPHIMURIUM, Strain/Indicator: TA100TN5-1,8-DNP1012, Metabolic Activation: NONE, Method: PREINCUBATION", "value": "inactive; negative"}, {"measurement": "mutagenic call", "setting": "Test System: AMES SALMONELLA TYPHIMURIUM, Strain/Indicator: TA100TN5-1,8-DNP1012, Metabolic Activation: NONE, Method: STANDARD PLATE", "value": "inactive; negative"}, {"measurement": "mutagenic call", "setting": "Test System: AMES SALMONELLA TYPHIMURIUM, Strain/Indicator: YG1026, Metabolic Activation: NONE, Method: PREINCUBATION", "value": "active; positive"}, {"measurement": "mutagenic call", "setting": "Test System: AMES SALMONELLA TYPHIMURIUM, Strain/Indicator: YG1029, Metabolic Activation: NONE, Method: PREINCUBATION", "value": "active; positive"}, {"measurement": "mutagenic call", "setting": "Test System: AMES SALMONELLA TYPHIMURIUM, Strain/Indicator: YG1042, Metabolic Activation: NONE, Method: PREINCUBATION", "value": "active; positive"}]}]}
